# Laboratory results taken from publication PMC7114444 (Virus Research, 2014).
# “Also recorded” adds a separate entry of the source.
# What was measured:
# [1] = test system: HCoV-NL63 N-protein; test: Western blot of N protein expression in HCoV-NL63-infected CaCo-2 cells; type: cell-based; settings: for N-protein expression at 20 μM: 48 h, 20 μM inhibitor
# [2] = test system: HCoV-NL63; test: HCoV-NL63 replication in Caco-2 cells, qPCR of genome equivalents; type: cell-based; settings: Human coronavirus NL63, Caco-2, 48 h, read-out: Inhibition of HCoV-NL63 in CaCo-2 EC50
# [3] = test system: NFAT3-GFP; test: NFAT-GFP nuclear translocation assay; type: cell-based; settings: HeLa cells, 40 nM drug, 2 μM ionomycin
# [4] = test system: lymphocyte; settings: lymphocyte proliferation assays, ref Sadeg et al., 1993a, 1993b; cited from earlier work
Structure (SMILES),N-protein expression at 20 μM [1],concentration above which N protein is not detectable any more ([1]; discussion statement),concentration at which N protein decreased ([1]; discussion statement) [µM],EC50 [2] [nM],NFAT-GFP nuclear translocation [3],immunosuppressive activity relative to CsA activity [4]
"C/C=C/C[C@@H](C)[C@@H](O)[C@H]1C(=O)N[C@@H](CC)C(=O)N(C)[C@H](C)C(=O)N(CC)[C@@H](C(C)C)C(=O)N[C@@H](C(C)C)C(=O)N(C)[C@@H](CC(C)C)C(=O)N[C@@H](C)C(=O)N[C@H](C)C(=O)N(C)[C@@H](CC(C)C)C(=O)N(C)[C@@H](CC(C)C)C(=O)N(C)[C@@H](C(C)C)C(=O)N1C [ALV, Alisporivir]",not detectable any more,above 5 μM,1.25,800,allow NFAT-GFP translocation to the nucleus; also recorded: NFAT migrated to the nucleus,
C/C=C/C[C@@H](C)[C@@H](O)[C@H]1C(=O)N[C@@H](C(C)C)C(=O)N(C)CC(=O)N(C)[C@@H](CC(C)C)C(=O)N[C@@H](C(C)C)C(=O)N(C)[C@@H](CC(C)C)C(=O)N[C@@H](C)C(=O)N[C@H](C)C(=O)N(C)[C@@H](CC(C)C)C(=O)N(C)[C@@H](CC(C)C)C(=O)N(C)[C@@H](C(C)C)C(=O)N1C [CsD],,,,,NFAT is not transferred to the nucleus; also recorded: showed the same behavior as CsA; also recorded: remained in the cytoplasm,about 10%
C=CC[C@@H]1/C=C(\C)C[C@H](C)C[C@H](OC)[C@H]2O[C@@](O)(C(=O)C(=O)N3CCCC[C@H]3C(=O)O[C@H](/C(C)=C/[C@@H]3CC[C@@H](O)[C@H](OC)C3)[C@H](C)[C@@H](O)CC1=O)[C@H](C)C[C@@H]2OC [FK506],,,,6600,NFAT is not transferred to the nucleus; also recorded: remained in the cytoplasm,
C/C=C/C[C@@H](C)[C@@H](O)[C@H]1C(=O)N[C@@H](CC)C(=O)N(C)CC(=O)N(C)[C@@H]([C@@H](C)CC)C(=O)N[C@@H](C(C)C)C(=O)N(C)[C@@H](CC(C)C)C(=O)N[C@@H](C)C(=O)N[C@H](C)C(=O)N(C)[C@@H](CC(C)C)C(=O)N(C)[C@@H](CC(C)C)C(=O)N(C)[C@@H](C(C)C)C(=O)N1C [NIM811],not detectable any more,above 5 μM,,800,allow NFAT-GFP translocation to the nucleus; also recorded: NFAT migrated to the nucleus,
